Experimental findings from patent US10730864B2, “RAD51 inhibitors and uses thereof” (THE REGENTS OF THE UNIVERSITY OF CALIFORNIA, priority 2015, dated 2020) are described below.

Molecules are shown by their SMILES. Read-outs that look alike come from different tables or passages of the source. Where only a bound is given, the exact number is not on record here.

For this experiment, the system named is triple-negative human breast cancer cell line MDA-MB-468. The experiment in a line: XTT cell killing / growth inhibition assay, MDA-MB-468. Format: cell-based. How it is done: Standard XTT assays with a four-day drug treatment procedure were performed to measure the dose dependent cytotoxicity of IBR analogs in cultured cells. In brief, cells were plated on 96-well dishes one day before the drug treatment, followed by drug treatment on day 2 and XTT assay on day 6 after drug addition by using a commercial cell proliferation kit (Roche Scientific) following the instructions.
Triplicate sets were measured and compiled for final data presentation.
To test the possibility of inhibiting triple-negative breast cancer, the newly synthesized IBR2 analogues IBR101-124 were screened of their growth inhibition abilities using an XTT assay.

Setting [1] is: MDA-MB-468, XTT assay, four-day drug treatment, read-out: IC50.
Where [2] appears, read: growth inhibition, raw dataset for SAR analysis.
Setting [3] is: Homo sapiens, 96 h, MDA-MB-468, XTT assay, four-day drug treatment, read-out: IC50.
Setting [4] is: Homo sapiens, MDA-MB-468, growth inhibition, raw dataset for SAR analysis, read-out: pIC50 (converted).

Consider `O=S(=O)(Cc1ccc(F)cc1)N1CCc2ccccc2[C@H]1c1c[nH]c2ccccc12` [IBR108], for which, under setting [1], the IC50 was 25.7 µM. Moreover, the pIC50 (as a rule, the negative decadic logarithm of the IC50, by convention in mol/L) under setting [2] was determined as 4.59.

Take `O=S(=O)(Cc1cccc(F)c1)N1CCc2ccccc2[C@H]1c1c[nH]c2ccccc12` [IBR106]: the IC50 under setting [1] is 17.2 µM. The compound further displayed a pIC50 under setting [2] of 4.76.

On to `O=S(=O)(Cc1ccc(C(F)(F)F)cc1)N1CCc2ccccc2[C@H]1c1c[nH]c2ccccc12` [IBR114], for which the IC50 under setting [1] turned out to be 20.7 µM. Also, under setting [2], the pIC50 was determined as 4.68.

For `O=S(=O)(Cc1ccccc1F)N1CCc2ccccc2[C@@H]1c1c[nH]c2ccccc12` [IBR103], for the setting “MDA-MB-468”, the “IC50 compared with that of the parental compound IBR2 (in words)” value (“IC50 compared with that” below) is “slightly lower”. For the same compound, the IC50 under setting [1] came out at 12.7 µM. Besides, the pIC50 under setting [2] was determined as 4.90.

Take `O=S(=O)(Cc1ccccc1)N1CCc2ccccc2[C@H]1c1c[nH]c2ccccc12` [IBR102]: the “IC50 compared with that” value (MDA-MB-468) was “slightly lower”. Besides, under setting [1], the IC50 worked out at 13.2 µM. Further, under setting [2], the pIC50 is on record as 4.88.

Regarding `O=S(=O)(Cc1ccccc1C(F)(F)F)N1CCc2ccccc2[C@@H]1c1c[nH]c2ccccc12` [IBR109], under “MDA-MB-468”, the “IC50 compared with that” value is listed as “slightly lower”. The IC50 under setting [1] stood at 14.8 µM. In addition, the pIC50 under setting [2] worked out at 4.83.

Regarding `O=S(=O)(Cc1ccccc1)N1Cc2ccccc2[C@H]1c1c[nH]c2ccccc12` [IBR121, (S)-3-(2-(benzylsulfonyl)isoindolin-1-yl)-1H-indole], the IC50 under setting [3] is > 12 µM and the IC50 under setting [4] is ≥ 12 µM.

For the compound `O=S(=O)(Cc1cccc(C(F)(F)F)c1)N1CCc2ccccc2[C@@H]1c1c[nH]c2ccccc12` [IBR111], the “IC50 compared with that” value (MDA-MB-468) is listed as “slightly lower”. Moreover, the IC50 under setting [1] is 11.1 µM. The compound also had a pIC50 under setting [2] of 4.95.

Consider `O=S(=O)(Cc1ccccc1)N1C=Cc2ccccc2C1c1c[nH]c2ncccc12` (centres unmarked) [IBR124], for which, under “MDA-MB-468”, the “IC50 compared with that” value is given as “significantly lower”. The IC50 under setting [1] came out at 6.2 µM. Under setting [2], this compound gave a pIC50 of 5.21.

Turning to `COc1cc2c(C3c4ccccc4C=CN3S(=O)(=O)Cc3ccccc3)c[nH]c2cn1` (centres unmarked) [IBR122], where the note is “MDA-MB-468”, the “IC50 compared with that” value is recorded as “slightly lower”. Also, the IC50 under setting [1] turned out to be 12.7 µM. Also, the pIC50 under setting [2] is recorded as 4.90.

Consider `O=S(=O)(Cc1ccccc1)N1CCc2ccccc2[C@@H]1c1c[nH]c2ccccc12` [IBR101], for which the “IC50 compared with that” value (MDA-MB-468) was “slightly lower”. Further, under setting [1], the IC50 amounted to 11.7 µM. The compound further registered a pIC50 under setting [2] of 4.93.

Turning to `O=S(=O)(Cc1ccc(C(F)(F)F)cc1)N1CCc2ccccc2[C@@H]1c1c[nH]c2ccccc12` [IBR113], the “IC50 compared with that” value (MDA-MB-468) is listed as “slightly lower”. For the same compound, the IC50 under setting [1] came out at 13.6 µM. Under setting [2], the negative-log IC50 (pIC50) came to 4.87.

In the case of `O=S(=O)(Cc1ccc(F)cc1)N1CCc2ccccc2[C@@H]1c1c[nH]c2ccccc12` [IBR107], the “IC50 compared with that” value (MDA-MB-468) is “slightly lower”. The IC50 under setting [1] was determined as 11.2 µM. Under setting [2], this compound had a pIC50 of 4.95.

As to `O=S(=O)(Cc1ccccc1)N1CC=Cc2ccccc2[C@H]1c1c[nH]c2ccccc12` [IBR116], the “growth inhibition activity (in words)” value (MDA-MB-468, XTT assay) was “almost complete loss of function”. Under setting [1], the IC50 was > 50 µM. The pIC50 under setting [2] is recorded as ≤ 4.30.

Regarding `O=S(=O)(Cc1ccccc1)N1CCc2ccccc2[C@H]1c1n[nH]c2ccccc12` [IBR118, (S)-1-(1H-Indazol-3-yl)-2-phenylmethanesulfonyl-1,2,3,4-tetrahydro-isoquinoline], the IC50 reads like this: under setting [3], 14.3 µM; under setting [4], 14.5 µM. In addition, the “IC50 compared with that” value (MDA-MB-468) is recorded as “slightly lower”.

For the compound `O=S(=O)(Cc1cccc(C(F)(F)F)c1)N1CCc2ccccc2[C@H]1c1c[nH]c2ccccc12` [IBR112], under setting [1], the IC50 was 22.2 µM. Also, the pIC50 under setting [2] was 4.65.

Regarding `O=S(=O)(Cc1cccc(F)c1)N1CCc2ccccc2[C@@H]1c1c[nH]c2ccccc12` [IBR105], the “IC50 compared with that” value (MDA-MB-468) is on record as “slightly lower”. Also, under setting [1], the IC50 came out at 14.2 µM. Also, the pIC50 under setting [2] came to 4.85.

Regarding `COc1nccc2c(C3c4ccccc4C=CN3S(=O)(=O)Cc3ccccc3)c[nH]c12` (racemic) [IBR123], for the setting “MDA-MB-468”, the “IC50 compared with that” value was “significantly lower”. Under setting [1], the IC50 amounted to 6.3 µM. Under setting [2], the pIC50 came to 5.20.

Regarding `O=S(=O)(Cc1ccccc1)N1CCc2ccccc2[C@@H]1c1n[nH]c2ccccc12` [IBR117, (R)-1-(1H-Indazol-3-yl)-2-phenylmethanesulfonyl-1,2,3,4-tetrahydro-isoquinoline], the IC50 is 9.5 µM under setting [3] and 9.55 µM under setting [4]. Further, the “IC50 compared with that” value (MDA-MB-468) is recorded as “significantly lower”.

In the case of `O=S(=O)(Cc1ccccc1F)N1CCc2ccccc2[C@H]1c1c[nH]c2ccccc12` [IBR104], the IC50 under setting [1] turned out to be 19.2 µM. Under setting [2], this compound registered a pIC50 of 4.72.

`O=S(=O)(Cc1ccccc1C(F)(F)F)N1CCc2ccccc2[C@H]1c1c[nH]c2ccccc12` [IBR110]: the IC50 under setting [1] was determined as 16.7 µM. Further, the pIC50 under setting [2] was 4.78.

For `Nc1ncc([C@@H]2c3ccccc3CCN2S(=O)(=O)Cc2ccccc2)s1` [IBR119, 5-((S)-2-Phenylmethanesulfonyl-1,2,3,4-tetrahydro-isoquinolin-1-yl)thiazol-2-ylamine], the IC50 by setting is: under setting [3], > 25 µM; under setting [4], ≥ 25.1 µM.

Regarding `O=S(=O)(Cc1ccccc1)N1CC=Cc2ccccc2[C@@H]1c1c[nH]c2ccccc12` [IBR115], the “IC50 compared with that” value (MDA-MB-468) was “slightly lower”. In addition, the “growth inhibition activity (in words)” value (MDA-MB-468, XTT assay) is on record as “minimal change of activity”. Besides, the IC50 under setting [1] was 14.7 µM. The pIC50 under setting [2] came to 4.83.
